Experimental data from PubChem BioAssay (NCI).
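Briefly, cells in 96-well plates were exposed to five compound concentrations for 48 h, and endpoints were estimated by linear interpolation. Abbreviation: GI50, concentration required for 50% inhibition of growth. TGI: concentration producing complete growth inhibition.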

What was measured:
Test in all cases: growth of human tumour cells (NCI), 48 h
786-0 renal = tested on: 786-0 renal
A498 renal = tested on: A498 renal
ACHN renal = tested on: ACHN renal
BT-549 breast = tested on: BT-549 breast
CAKI-1 renal = tested on: CAKI-1 renal
CCRF-CEM leukemia = tested on: CCRF-CEM leukemia
COLO 205 colon = tested on: COLO 205 colon
DU-145 prostate = tested on: DU-145 prostate
EKVX NSCLC = tested on: EKVX NSCLC
HCC-2998 colon = tested on: HCC-2998 colon
HCT-116 colon = tested on: HCT-116 colon
HCT-15 colon = tested on: HCT-15 colon
HL-60(TB) leukemia = tested on: HL-60(TB) leukemia
HOP-62 NSCLC = tested on: HOP-62 NSCLC
HOP-92 NSCLC = tested on: HOP-92 NSCLC
HS 578T breast = tested on: HS 578T breast
HT29 colon = tested on: HT29 colon
IGROV1 ovarian = tested on: IGROV1 ovarian
K-562 leukemia = tested on: K-562 leukemia
KM12 colon = tested on: KM12 colon
LOX IMVI melanoma = tested on: LOX IMVI melanoma
M14 melanoma = tested on: M14 melanoma
MCF7 breast = tested on: MCF7 breast
MDA-MB-231 breast = tested on: MDA-MB-231 breast
MDA-MB-435 = tested on: MDA-MB-435
MOLT-4 leukemia = tested on: MOLT-4 leukemia
NCI-H226 lung = tested on: NCI-H226 lung
NCI-H23 lung = tested on: NCI-H23 lung
NCI-H460 lung = tested on: NCI-H460 lung
NCI/ADR-RES ovarian = tested on: NCI/ADR-RES ovarian
OVCAR-4 ovarian = tested on: OVCAR-4 ovarian
OVCAR-8 ovarian = tested on: OVCAR-8 ovarian
PC-3 prostate = tested on: PC-3 prostate
RPMI-8226 leukemia = tested on: RPMI-8226 leukemia
RXF 393 renal = tested on: RXF 393 renal
SF-268 CNS = tested on: SF-268 CNS
SF-295 CNS = tested on: SF-295 CNS
SF-539 CNS = tested on: SF-539 CNS
SK-MEL-2 melanoma = tested on: SK-MEL-2 melanoma
SK-MEL-28 melanoma = tested on: SK-MEL-28 melanoma
SK-MEL-5 melanoma = tested on: SK-MEL-5 melanoma
SK-OV-3 ovarian = tested on: SK-OV-3 ovarian
SNB-19 CNS = tested on: SNB-19 CNS
SNB-75 CNS = tested on: SNB-75 CNS
SR leukemia = tested on: SR leukemia
SW-620 colon = tested on: SW-620 colon
T-47D breast = tested on: T-47D breast
TK-10 renal = tested on: TK-10 renal
U251 CNS = tested on: U251 CNS
UACC-257 melanoma = tested on: UACC-257 melanoma
UACC-62 melanoma = tested on: UACC-62 melanoma
UO-31 renal = tested on: UO-31 renal
A549 NSCLC = tested on: A549 NSCLC
MALME-3M melanoma = tested on: MALME-3M melanoma
NCI-H522 lung = tested on: NCI-H522 lung
OVCAR-3 ovarian = tested on: OVCAR-3 ovarian
OVCAR-5 ovarian = tested on: OVCAR-5 ovarian
SN12C renal = tested on: SN12C renal

CC1=NN(c2nc(N)nc(C(C)Cl)n2)C(C)(C)C1 (stereo unspecified)
TGI (786-0 renal): > 100 µM | TGI (A498 renal): > 100 µM | TGI (ACHN renal): > 100 µM | TGI (BT-549 breast): > 100 µM | TGI (CAKI-1 renal): > 100 µM | TGI (CCRF-CEM leukemia): > 100 µM | TGI (COLO 205 colon): > 100 µM | TGI (DU-145 prostate): > 100 µM | TGI (EKVX NSCLC): > 100 µM | TGI (HCC-2998 colon): > 100 µM | TGI (HCT-116 colon): > 100 µM | TGI (HCT-15 colon): > 100 µM | TGI (HL-60(TB) leukemia): > 100 µM | TGI (HOP-62 NSCLC): > 100 µM | TGI (HOP-92 NSCLC): > 100 µM | TGI (HS 578T breast): > 100 µM | TGI (HT29 colon): > 100 µM | TGI (IGROV1 ovarian): > 100 µM | TGI (K-562 leukemia): > 100 µM | TGI (KM12 colon): > 100 µM | TGI (LOX IMVI melanoma): > 100 µM | TGI (M14 melanoma): > 100 µM | TGI (MCF7 breast): > 100 µM | TGI (MDA-MB-231 breast): > 100 µM | TGI (MDA-MB-435): > 100 µM | TGI (MOLT-4 leukemia): > 100 µM | TGI (NCI-H226 lung): > 100 µM | TGI (NCI-H23 lung): > 100 µM | TGI (NCI-H460 lung): > 100 µM | TGI (NCI/ADR-RES ovarian): > 100 µM | TGI (OVCAR-4 ovarian): > 100 µM | TGI (OVCAR-8 ovarian): > 100 µM | TGI (PC-3 prostate): > 100 µM | TGI (RPMI-8226 leukemia): > 100 µM | TGI (RXF 393 renal): > 100 µM | TGI (SF-268 CNS): > 100 µM | TGI (SF-295 CNS): > 100 µM | TGI (SF-539 CNS): > 100 µM | TGI (SK-MEL-2 melanoma): > 100 µM | TGI (SK-MEL-28 melanoma): > 100 µM | TGI (SK-MEL-5 melanoma): > 100 µM | TGI (SK-OV-3 ovarian): > 100 µM | TGI (SNB-19 CNS): > 100 µM | TGI (SNB-75 CNS): > 100 µM | TGI (SR leukemia): > 100 µM | TGI (SW-620 colon): > 100 µM | TGI (T-47D breast): > 100 µM | TGI (TK-10 renal): > 100 µM | TGI (U251 CNS): > 100 µM | TGI (UACC-257 melanoma): > 100 µM | TGI (UACC-62 melanoma): > 100 µM | TGI (UO-31 renal): > 100 µM

COCCN(Cc1ccc(F)cc1)c1ccc(CO)c(Cl)c1
GI50 (786-0 renal): 23.1 µM | TGI (786-0 renal): > 82.3 µM | GI50 (A498 renal): 0.048 µM | TGI (A498 renal): 0.193 µM | GI50 (A549 NSCLC): 10.4 µM | TGI (A549 NSCLC): > 79.5 µM | GI50 (ACHN renal): 39.9 µM | TGI (ACHN renal): > 100 µM | GI50 (BT-549 breast): 40.4 µM | TGI (BT-549 breast): > 100 µM | GI50 (CAKI-1 renal): 21.2 µM | TGI (CAKI-1 renal): > 100 µM | GI50 (CCRF-CEM leukemia): 45.2 µM | TGI (CCRF-CEM leukemia): > 100 µM | GI50 (COLO 205 colon): 11.1 µM | TGI (COLO 205 colon): 31.8 µM | GI50 (DU-145 prostate): 70.4 µM | TGI (DU-145 prostate): > 100 µM | GI50 (HCC-2998 colon): 24 µM | TGI (HCC-2998 colon): > 100 µM | GI50 (HCT-116 colon): 0.821 µM | TGI (HCT-116 colon): > 56.5 µM | GI50 (HCT-15 colon): 30.6 µM | TGI (HCT-15 colon): > 100 µM | GI50 (HL-60(TB) leukemia): 27.4 µM | TGI (HL-60(TB) leukemia): > 75.4 µM | GI50 (HOP-62 NSCLC): 13.5 µM | TGI (HOP-62 NSCLC): > 100 µM | GI50 (HOP-92 NSCLC): 8.16 µM | TGI (HOP-92 NSCLC): 60.1 µM | GI50 (HS 578T breast): 60.9 µM | TGI (HS 578T breast): > 100 µM | GI50 (HT29 colon): 22.4 µM | TGI (HT29 colon): > 100 µM | GI50 (IGROV1 ovarian): 0.559 µM | TGI (IGROV1 ovarian): 3.7 µM | GI50 (K-562 leukemia): 10 µM | TGI (K-562 leukemia): > 100 µM | GI50 (KM12 colon): 33.8 µM | TGI (KM12 colon): > 100 µM | GI50 (LOX IMVI melanoma): 36.2 µM | TGI (LOX IMVI melanoma): > 100 µM | GI50 (M14 melanoma): 38.9 µM | TGI (M14 melanoma): > 100 µM | GI50 (MALME-3M melanoma): > 57.1 µM | TGI (MALME-3M melanoma): > 100 µM | GI50 (MCF7 breast): 2.79 µM | TGI (MCF7 breast): > 100 µM | GI50 (MDA-MB-231 breast): 24.1 µM | TGI (MDA-MB-231 breast): > 85.3 µM | GI50 (MDA-MB-435): 55.5 µM | TGI (MDA-MB-435): > 100 µM | GI50 (MOLT-4 leukemia): 34 µM | TGI (MOLT-4 leukemia): > 78.9 µM | GI50 (NCI-H226 lung): 0.152 µM | TGI (NCI-H226 lung): 0.353 µM | GI50 (NCI-H23 lung): 17.2 µM | TGI (NCI-H23 lung): > 100 µM | GI50 (NCI-H460 lung): 1.9 µM | TGI (NCI-H460 lung): > 43.6 µM | GI50 (NCI-H522 lung): 39.1 µM | TGI (NCI-H522 lung): > 100 µM | GI50 (NCI/ADR-RES ovarian): 27.1 µM | TGI (NCI/ADR-RES ovarian): > 100 µM | GI50 (OVCAR-3 ovarian): 3.54 µM | TGI (OVCAR-3 ovarian): 15.4 µM | GI50 (OVCAR-4 ovarian): 1.82 µM | TGI (OVCAR-4 ovarian): 23 µM | GI50 (OVCAR-5 ovarian): 0.431 µM | TGI (OVCAR-5 ovarian): 2.52 µM | GI50 (OVCAR-8 ovarian): 29.9 µM | TGI (OVCAR-8 ovarian): > 100 µM | GI50 (PC-3 prostate): 29.4 µM | TGI (PC-3 prostate): > 100 µM | GI50 (RPMI-8226 leukemia): 17.6 µM | TGI (RPMI-8226 leukemia): > 95.9 µM | GI50 (RXF 393 renal): 4.9 µM | TGI (RXF 393 renal): > 34.6 µM | GI50 (SF-268 CNS): 50.6 µM | TGI (SF-268 CNS): > 100 µM | GI50 (SF-295 CNS): 3.83 µM | TGI (SF-295 CNS): > 100 µM | GI50 (SF-539 CNS): > 71.3 µM | TGI (SF-539 CNS): > 100 µM | GI50 (SK-MEL-2 melanoma): 20.6 µM | TGI (SK-MEL-2 melanoma): 59.5 µM | GI50 (SK-MEL-28 melanoma): 31.3 µM | TGI (SK-MEL-28 melanoma): > 100 µM | GI50 (SK-MEL-5 melanoma): 12.2 µM | TGI (SK-MEL-5 melanoma): 26.2 µM | GI50 (SK-OV-3 ovarian): 38.6 µM | TGI (SK-OV-3 ovarian): > 100 µM | GI50 (SN12C renal): 24.9 µM | TGI (SN12C renal): > 100 µM | GI50 (SNB-19 CNS): 33.4 µM | TGI (SNB-19 CNS): > 100 µM | GI50 (SNB-75 CNS): 16.6 µM | TGI (SNB-75 CNS): > 87.4 µM | GI50 (SR leukemia): 47.9 µM | TGI (SR leukemia): > 100 µM | GI50 (SW-620 colon): 7.29 µM | TGI (SW-620 colon): > 100 µM | GI50 (T-47D breast): 0.748 µM | TGI (T-47D breast): 7.04 µM | GI50 (TK-10 renal): 0.271 µM | TGI (TK-10 renal): 1.66 µM | GI50 (U251 CNS): 6.33 µM | TGI (U251 CNS): > 54.7 µM | GI50 (UACC-257 melanoma): 0.492 µM | TGI (UACC-257 melanoma): 2.5 µM | GI50 (UACC-62 melanoma): 0.653 µM | TGI (UACC-62 melanoma): 4.28 µM | GI50 (UO-31 renal): 15.5 µM | TGI (UO-31 renal): > 100 µM
